Measurements as given in PMC8296573, “Synthesis and Biological Evaluation of Fingolimod Derivatives as Antibacterial Agents” (ACS Omega, 2021).
≈ marks a conversion by molar mass, not a printed value. Like-named read-outs stand apart in the source and are kept apart here.

Columns and labels:
S. aureus ATCC 25923 [1] = assay: Antibacterial activity, pre-exposure (planktonic cells and biofilm formation); assay type: cell-based, Staphylococcus aureus; conditions: for MIC / inhibition at 5 µM / inhibition at 10 µM / inhibition at 15 µM / inhibition at 25 µM: Staphylococcus aureus, ATCC25923; for inhibition at 5 µM / inhibition at 10 µM / inhibition at 15 µM / inhibition at 25 µM / Average inhibition %, biofilms viability / Average inhibition %, planktonic cells viability: pre-exposure, ± SD
In short: (§1)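 Bacteria and compound were co-incubated from the start for 18 h at 37 °C, 220 rpm. Planktonic cells scored by turbidity plus resazurin reduction; washed biofilms scored by 20 μM resazurin (30, 60, 90 min for S. aureus, A. baumannii, P. aeruginosa) and ethanol-fixed crystal violet staining.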

S. aureus ATCC 25923 [2] = assay: Antibacterial activity, post-exposure on preformed 18-h-old biofilms; assay type: cell-based, Staphylococcus aureus; conditions: ± SD; for inhibition at 25 µM / inhibition at 50 µM / inhibition at 100 µM / inhibition at 200 µM: Staphylococcus aureus; for inhibition at 25 µM: ATCC25923, 25 µM; for inhibition at 50 µM: ATCC25923, 50 µM; for inhibition at 100 µM: ATCC25923, 100 µM; for inhibition at 200 µM: ATCC25923, 200 µM
In short: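 Compounds were applied to preformed 18-h biofilms after medium change and left 24 h. Read-outs: planktonic OD plus resazurin fluorescence (20 μM), biofilm metabolic activity by resazurin 30 min at 37 °C, then biomass by crystal violet absorbance at 595 nm after ethanol fixation.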

A. baumannii NCTC 13423 = assay: Antibacterial activity, pre-exposure; assay type: cell-based, Acinetobacter baumannii; conditions: for Average inhibition %, biofilms viability / Average inhibition %, planktonic cells viability / inhibition at 10 µM / inhibition at 15 µM / inhibition at 25 µM / inhibition at 50 µM: A. baumannii NCTC 13423, pre-exposure, ± SD; for inhibition at 10 µM / inhibition at 15 µM / inhibition at 25 µM / inhibition at 50 µM: Acinetobacter baumannii, NCTC13423
In short: as §1

P. aeruginosa ATCC 9027 = assay: Antibacterial activity, pre-exposure; assay type: cell-based, Pseudomonas aeruginosa; conditions: for Average inhibition %, biofilms viability / Average inhibition %, planktonic cells viability / inhibition at 50 µM / inhibition at 100 µM / inhibition at 150 µM / inhibition at 200 µM: P. aeruginosa ATCC 9027, pre-exposure, ± SD; for inhibition at 50 µM / inhibition at 100 µM / inhibition at 150 µM / inhibition at 200 µM: Pseudomonas aeruginosa, ATCC9027
In short: as §1

[3] = 10 µM, read-out: Average inhibition %, biofilms biomass
[4] = 10 µM, read-out: Average inhibition %, planktonic cells turbidity
[5] = 15 µM, read-out: Average inhibition %, biofilms biomass
[6] = 15 µM, read-out: Average inhibition %, planktonic cells turbidity
[7] = 25 µM, read-out: Average inhibition %, biofilms biomass
[8] = 25 µM, read-out: Average inhibition %, planktonic cells turbidity
[9] = read-out: Average inhibition %, biofilms biomass
[10] = read-out: Average inhibition %, planktonic cells turbidity
[11] = 50 µM, read-out: Average inhibition %, biofilms biomass
[12] = 50 µM, read-out: Average inhibition %, planktonic cells turbidity

In the case of `CCCCCCCCc1ccc2cc(CC(N)(CO)CO)ccc2c1` [Compound 79, 2-Amino-2-[(6-octylnaphthalen-2-yl)methyl]propane-1,3-diol], the MIC (S. aureus ATCC 25923 [1]; lowest concentration with no visible growth (>90% inhibition of turbidity and viability of planktonic cells), 18 h, read-out: MIC S. aureus ATCC 25923) is reported as 10 µM (≈ 3.44 µg/mL), the inhibition at 5 µM (S. aureus ATCC 25923 [1]; 5 µM, read-out: Average inhibition %, biofilms biomass) is reported as 37.5 ± 32.5% and the inhibition at 5 µM (S. aureus ATCC 25923 [1]; 5 µM, read-out: Average inhibition %, planktonic cells turbidity) is reported as 15.2 ± 17.2%. For the same molecule, the inhibition at 10 µM (S. aureus ATCC 25923 [1]; [3]) was 91.3 ± 5.8%, the inhibition at 10 µM (S. aureus ATCC 25923 [1]; [4]) was 98.7 ± 0.9% and the inhibition at 15 µM (S. aureus ATCC 25923 [1]; [5]) was 92.1 ± 4.9%. It also gave an inhibition at 15 µM (S. aureus ATCC 25923 [1]; [6]) of 98.7 ± 1%, an inhibition at 25 µM (S. aureus ATCC 25923 [1]; [7]) of 92.5 ± 4.2% and an inhibition at 25 µM (S. aureus ATCC 25923 [1]; [8]) of 98.5 ± 1%. The MIC (S. aureus ATCC 25923 [1]; read-out: MIC (S. aureus)) was 10 µM (≈ 3.44 µg/mL), the “Average inhibition %, biofilms viability” value (S. aureus ATCC 25923 [1]; 5 µM) was 28 ± 2.7% and the “Average inhibition %, planktonic cells viability” value (S. aureus ATCC 25923 [1]; 5 µM) was 26.3 ± 24.3%. For the same molecule, the “Average inhibition %, biofilms viability” value (S. aureus ATCC 25923 [1]; 10 µM) was 98.1 ± 0.5%, the “Average inhibition %, planktonic cells viability” value (S. aureus ATCC 25923 [1]; 10 µM) was 99.8 ± 0% and the “Average inhibition %, biofilms viability” value (S. aureus ATCC 25923 [1]; 15 µM) was 99.3 ± 0.2%. For the same molecule, the “Average inhibition %, planktonic cells viability” value (S. aureus ATCC 25923 [1]; 15 µM) was 99.8 ± 0.1%, the “Average inhibition %, biofilms viability” value (S. aureus ATCC 25923 [1]; 25 µM) was 99.2 ± 0.3% and the “Average inhibition %, planktonic cells viability” value (S. aureus ATCC 25923 [1]; 25 µM) was 99.9 ± 0.2%. The “Average inhibition %, biofilms viability” value (S. aureus ATCC 25923 [2]; 25 µM) was 15.4 ± 3.3%, the “Average inhibition %, planktonic cells viability” value (S. aureus ATCC 25923 [2]; 25 µM) was 0.3 ± 0.6% and the “Average inhibition %, biofilms viability” value (S. aureus ATCC 25923 [2]; 50 µM) was 23.3 ± 4.3%. For the same molecule, the “Average inhibition %, planktonic cells viability” value (S. aureus ATCC 25923 [2]; 50 µM) was 0 ± 0%, the “Average inhibition %, biofilms viability” value (S. aureus ATCC 25923 [2]; 100 µM) was 28.7 ± 6.3% and the “Average inhibition %, planktonic cells viability” value (S. aureus ATCC 25923 [2]; 100 µM) was 23.6 ± 15.5%. The “Average inhibition %, biofilms viability” value (S. aureus ATCC 25923 [2]; 200 µM) was 28.8 ± 6.5%, the “Average inhibition %, planktonic cells viability” value (S. aureus ATCC 25923 [2]; 200 µM) was 57 ± 23.8% and the inhibition at 25 µM (S. aureus ATCC 25923 [2]; [9]) was 21.5 ± 4.7%. The inhibition at 25 µM (S. aureus ATCC 25923 [2]; [10]) was 16.1 ± 25.9%, the inhibition at 50 µM (S. aureus ATCC 25923 [2]; [9]) was 29.7 ± 10.3% and the inhibition at 50 µM (S. aureus ATCC 25923 [2]; [10]) was 12.4 ± 8.3%. The inhibition at 100 µM (S. aureus ATCC 25923 [2]; [9]) was 36.6 ± 6.4%, the inhibition at 100 µM (S. aureus ATCC 25923 [2]; [10]) was 25.7 ± 16.3% and the inhibition at 200 µM (S. aureus ATCC 25923 [2]; [9]) was 43.1 ± 20.9%. The inhibition at 200 µM (S. aureus ATCC 25923 [2]; [10]) was 31.5 ± 11.1%, the “Average inhibition %, biofilms viability” value (A. baumannii NCTC 13423; 10 µM) was 0.3 ± 0.6% and the “Average inhibition %, planktonic cells viability” value (A. baumannii NCTC 13423; 10 µM) was 4.7 ± 4.7%. For the same molecule, the “Average inhibition %, biofilms viability” value (A. baumannii NCTC 13423; 15 µM) was 0.7 ± 0.6%, the “Average inhibition %, planktonic cells viability” value (A. baumannii NCTC 13423; 15 µM) was 4.2 ± 4.8% and the “Average inhibition %, biofilms viability” value (A. baumannii NCTC 13423; 25 µM) was 1.2 ± 1.5%. The “Average inhibition %, planktonic cells viability” value (A. baumannii NCTC 13423; 25 µM) was 0 ± 0%, the “Average inhibition %, biofilms viability” value (A. baumannii NCTC 13423; 50 µM) was 6.5 ± 6.4% and the “Average inhibition %, planktonic cells viability” value (A. baumannii NCTC 13423; 50 µM) was 0 ± 0%. The inhibition at 10 µM (A. baumannii NCTC 13423; [3]) was 1.7 ± 3%, the inhibition at 10 µM (A. baumannii NCTC 13423; [4]) was 0% and the inhibition at 15 µM (A. baumannii NCTC 13423; [5]) was 3.3 ± 5.7%. For the same molecule, the inhibition at 15 µM (A. baumannii NCTC 13423; [6]) was 0%, the inhibition at 25 µM (A. baumannii NCTC 13423; [7]) was 0.2 ± 0.4% and the inhibition at 25 µM (A. baumannii NCTC 13423; [8]) was 0%. For the same molecule, the inhibition at 50 µM (A. baumannii NCTC 13423; [11]) was 3.3 ± 5.1%, the inhibition at 50 µM (A. baumannii NCTC 13423; [12]) was 0.3 ± 0.6% and the “MIC A. baumannii NCTC 13423” value (A. baumannii NCTC 13423; pre-exposure, Inactive = no activity up to 50 μM, > = some inhibition but no MIC reached) was “Inactive”. For the same molecule, the “Average inhibition %, biofilms viability” value (P. aeruginosa ATCC 9027; 50 µM) was 0 ± 0%, the “Average inhibition %, planktonic cells viability” value (P. aeruginosa ATCC 9027; 50 µM) was 3.9 ± 3.6% and the “Average inhibition %, biofilms viability” value (P. aeruginosa ATCC 9027; 100 µM) was 0 ± 0%. The “Average inhibition %, planktonic cells viability” value (P. aeruginosa ATCC 9027; 100 µM) was 1.9 ± 2.3%, the “Average inhibition %, biofilms viability” value (P. aeruginosa ATCC 9027; 150 µM) was 0.5 ± 0.9% and the “Average inhibition %, planktonic cells viability” value (P. aeruginosa ATCC 9027; 150 µM) was 4.2 ± 7.4%. For the same molecule, the “Average inhibition %, biofilms viability” value (P. aeruginosa ATCC 9027; 200 µM) was 2.1 ± 3.6%, the “Average inhibition %, planktonic cells viability” value (P. aeruginosa ATCC 9027; 200 µM) was 7.6 ± 13.1% and the inhibition at 50 µM (P. aeruginosa ATCC 9027; [11]) was 1.2 ± 1.5%. For the same molecule, the inhibition at 50 µM (P. aeruginosa ATCC 9027; [12]) was 23.6 ± 9%, the inhibition at 100 µM (P. aeruginosa ATCC 9027; 100 µM, read-out: Average inhibition %, biofilms biomass) was 3.6 ± 4.7% and the inhibition at 100 µM (P. aeruginosa ATCC 9027; 100 µM, read-out: Average inhibition %, planktonic cells turbidity) was 23 ± 3.8%. The inhibition at 150 µM (P. aeruginosa ATCC 9027; 150 µM, read-out: Average inhibition %, biofilms biomass) was 6.1 ± 5.3%, the inhibition at 150 µM (P. aeruginosa ATCC 9027; 150 µM, read-out: Average inhibition %, planktonic cells turbidity) was 28 ± 2.4% and the inhibition at 200 µM (P. aeruginosa ATCC 9027; 200 µM, read-out: Average inhibition %, biofilms biomass) was 0%. For the same molecule, the inhibition at 200 µM (P. aeruginosa ATCC 9027; 200 µM, read-out: Average inhibition %, planktonic cells turbidity) was 25 ± 2.8% and the “MIC P. aeruginosa ATCC 9027” value (P. aeruginosa ATCC 9027; pre-exposure, Inactive = no activity up to 200 μM, > = some inhibition but no MIC reached) was “Inactive”.
